Source: article PMC13267113 (npj Drug Discovery, 2025)

Tested on: zebrafish embryos
Assay: In vivo cardiotoxicity in zebrafish embryos
Conditions: treated 2 to 3 dpf; CYS 20 µM; terfenadine 10, 20 µM
Experimental: Handling of adult zebrafish and experiments with zebrafish embryos were performed in accordance with the EU directive 2010/63/EU and the German Animal Welfare Act (§11 Abs. 1 TierSchG). An automatic aquatic eco-system (PENTAIR, Apoka, UK) was used for zebrafish housing. Adult zebrafish were mated pairwise in our zebrafish facility after one night in the mating cages (light/dark cycle: 14 h/10 h). The eggs were collected after 2 h of mating and placed in a petri dish with fish water (pH 7.36 ± 0.08, conductivity: 800 ± 50 µs). The eggs were washed with 0.3x Danieau´s medium (17 mM NaCl, 0.2 mM KCl, 0.12 mM MgSO4, 0.18 mM Ca(NO3)2, 1.5 mM HEPES, pH 7.1–7.3, and 1.2 µM methylene blue). 300 eggs were placed per Petri dish and stored in the incubator at 28 °C overnight. 24 h post-mating, the unfertilized eggs were discarded. The 0.3x Danieau´s media in the petri dishes was replaced every 24 h and embryos with developmental issues were euthanized using ice water. […]
Embryos were prepared as described above. […] Afterwards, embryos were anesthetized with tricaine added to the media (40 µg/mL, 0.004% (w/v)) and videos were recorded using a stereomicroscope (1.25 × magnification) (Stemi 508, Zeiss) with Media Recorder (version 4.0) and analyzed via DanioScope software (version 1.2.208, Noldus). […]

With `CC(C)(C)c1ccc(C(O)CCCN2CCC(C(O)(c3ccccc3)c3ccccc3)CC2)cc1` (centres unmarked) [terfenadine] the heartbeat rate was “significant and concentration-dependent decrease of beats per minute” and the pericardial area was “significant, concentration-dependent increase in pericardial area”.
